From ChEMBL document CHEMBL1201862, “PubChem BioAssay data set” (2004)
Activity calls are given as the source filed them.

Assays:
[1] = biological target: T1, Endoribonuclease toxin MazF (Escherichia coli K-12, UniProt P0AE70); assay: fluorescent RNA oligo signal without MazF, dose response, counter-screen for MazEF activator project, biochemical, fluorescence, single-stranded RNase substrate (AID 588502); type: functional
T1 sequence (P0AE70 whole entry): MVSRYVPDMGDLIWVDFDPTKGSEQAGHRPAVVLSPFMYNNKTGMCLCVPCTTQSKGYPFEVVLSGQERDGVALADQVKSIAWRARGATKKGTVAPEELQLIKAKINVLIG

[2] = microbe, parasite or virus in culture; type: functional; details: Mycobacterium tuberculosis
[3] = biological target: T1, Endoribonuclease toxin MazF; assay: MazF toxin RNase activators, dose response, biochemical, fluorescence, single-stranded RNA substrate, uHTS hits (AID 588481); type: functional
[4] = biological target: T2, Apoptotic protease-activating factor 1 (Homo sapiens, UniProt O14727); type: functional
T2 sequence (O14727 whole entry): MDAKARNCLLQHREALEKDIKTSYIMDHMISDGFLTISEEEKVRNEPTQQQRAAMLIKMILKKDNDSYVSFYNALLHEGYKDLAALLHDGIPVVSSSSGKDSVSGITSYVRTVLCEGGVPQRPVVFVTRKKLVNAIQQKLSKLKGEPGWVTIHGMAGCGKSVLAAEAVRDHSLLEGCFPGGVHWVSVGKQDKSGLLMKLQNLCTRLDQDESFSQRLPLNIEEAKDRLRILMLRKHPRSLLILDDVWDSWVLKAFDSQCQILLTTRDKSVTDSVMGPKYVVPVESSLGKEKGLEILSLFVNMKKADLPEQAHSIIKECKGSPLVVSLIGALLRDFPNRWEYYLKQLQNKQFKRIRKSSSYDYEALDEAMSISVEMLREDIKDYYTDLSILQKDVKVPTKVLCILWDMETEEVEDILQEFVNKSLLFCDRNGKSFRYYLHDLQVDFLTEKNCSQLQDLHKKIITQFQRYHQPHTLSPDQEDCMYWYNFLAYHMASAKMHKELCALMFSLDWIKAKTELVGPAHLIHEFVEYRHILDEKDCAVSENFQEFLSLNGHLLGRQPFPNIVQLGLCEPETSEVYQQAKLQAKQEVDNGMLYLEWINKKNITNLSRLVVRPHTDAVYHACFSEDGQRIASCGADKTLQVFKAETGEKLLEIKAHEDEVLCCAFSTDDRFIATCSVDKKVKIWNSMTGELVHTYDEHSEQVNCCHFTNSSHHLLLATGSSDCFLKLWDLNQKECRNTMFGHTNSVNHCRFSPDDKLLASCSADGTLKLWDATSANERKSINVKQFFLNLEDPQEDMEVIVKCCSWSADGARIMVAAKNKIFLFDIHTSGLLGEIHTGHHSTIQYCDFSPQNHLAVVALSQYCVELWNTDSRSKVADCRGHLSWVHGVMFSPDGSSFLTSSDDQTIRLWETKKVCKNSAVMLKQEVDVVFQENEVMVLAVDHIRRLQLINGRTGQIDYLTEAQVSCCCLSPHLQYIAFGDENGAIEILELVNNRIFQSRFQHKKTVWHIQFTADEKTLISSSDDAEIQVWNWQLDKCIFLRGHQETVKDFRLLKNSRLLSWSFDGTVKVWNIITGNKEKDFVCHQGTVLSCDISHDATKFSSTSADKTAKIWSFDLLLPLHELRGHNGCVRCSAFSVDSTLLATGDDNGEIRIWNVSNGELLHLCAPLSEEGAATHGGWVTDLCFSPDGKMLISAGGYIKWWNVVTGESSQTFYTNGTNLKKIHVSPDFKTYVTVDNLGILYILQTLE

Genome polyprotein = Genome polyprotein (dengue virus type 2, UniProt P29990); assay: Dengue-2 NS5 methyltransferase inhibitors, primary screen, biochemical, confirmation dose response (AID 588689); type: functional
[5] = biological target: T3, RNA-binding protein pos-1 (Caenorhabditis elegans, UniProt G5EF15); assay: inhibitors of POS-1/mex-3 RNA binding, dose response, biochemical, fluorescence polarization (AID 1964);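 also: purified POS-1 fused to maltose binding protein made in E. coli; potency of compounds blocking POS-1 binding to fluorescent RNA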
T3 sequence (G5EF15 whole entry): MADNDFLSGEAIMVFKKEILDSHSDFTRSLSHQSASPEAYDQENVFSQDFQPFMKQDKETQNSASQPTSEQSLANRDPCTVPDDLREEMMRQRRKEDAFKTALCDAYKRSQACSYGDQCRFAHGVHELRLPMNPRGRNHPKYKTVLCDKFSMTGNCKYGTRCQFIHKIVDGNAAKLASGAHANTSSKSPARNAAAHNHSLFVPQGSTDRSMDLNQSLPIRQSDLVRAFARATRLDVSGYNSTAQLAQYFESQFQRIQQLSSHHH

[6] = biological target: T4, Zinc finger protein mex-5 (Caenorhabditis elegans, UniProt Q9XUB2); assay: MEX-5/TCR-2 RNA interaction inhibitors, dose response, biochemical, C. elegans, fluorescence polarization (AID 1960)
T4 sequence (Q9XUB2 whole entry): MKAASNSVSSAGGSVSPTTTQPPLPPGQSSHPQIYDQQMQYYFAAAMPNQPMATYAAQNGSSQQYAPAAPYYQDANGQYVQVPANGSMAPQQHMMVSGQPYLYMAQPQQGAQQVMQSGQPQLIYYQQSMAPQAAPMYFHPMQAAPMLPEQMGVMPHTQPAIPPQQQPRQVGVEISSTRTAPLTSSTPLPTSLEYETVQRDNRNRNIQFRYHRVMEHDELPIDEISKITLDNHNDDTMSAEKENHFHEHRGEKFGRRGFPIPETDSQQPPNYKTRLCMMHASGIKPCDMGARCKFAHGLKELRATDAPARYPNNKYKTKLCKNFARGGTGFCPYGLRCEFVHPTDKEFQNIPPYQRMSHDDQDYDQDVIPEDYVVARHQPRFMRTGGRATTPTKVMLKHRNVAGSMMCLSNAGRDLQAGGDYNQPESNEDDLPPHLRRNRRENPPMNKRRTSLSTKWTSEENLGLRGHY

Coagulation factor XII = biological target: T5, Coagulation factor XII (Homo sapiens, UniProt P00748); type: functional;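 also: activated factor XIIa alpha cleaving a fluorogenic AMC peptide substrate; inhibitor potency from loss of enzyme activity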
T5 sequence (P00748 whole entry): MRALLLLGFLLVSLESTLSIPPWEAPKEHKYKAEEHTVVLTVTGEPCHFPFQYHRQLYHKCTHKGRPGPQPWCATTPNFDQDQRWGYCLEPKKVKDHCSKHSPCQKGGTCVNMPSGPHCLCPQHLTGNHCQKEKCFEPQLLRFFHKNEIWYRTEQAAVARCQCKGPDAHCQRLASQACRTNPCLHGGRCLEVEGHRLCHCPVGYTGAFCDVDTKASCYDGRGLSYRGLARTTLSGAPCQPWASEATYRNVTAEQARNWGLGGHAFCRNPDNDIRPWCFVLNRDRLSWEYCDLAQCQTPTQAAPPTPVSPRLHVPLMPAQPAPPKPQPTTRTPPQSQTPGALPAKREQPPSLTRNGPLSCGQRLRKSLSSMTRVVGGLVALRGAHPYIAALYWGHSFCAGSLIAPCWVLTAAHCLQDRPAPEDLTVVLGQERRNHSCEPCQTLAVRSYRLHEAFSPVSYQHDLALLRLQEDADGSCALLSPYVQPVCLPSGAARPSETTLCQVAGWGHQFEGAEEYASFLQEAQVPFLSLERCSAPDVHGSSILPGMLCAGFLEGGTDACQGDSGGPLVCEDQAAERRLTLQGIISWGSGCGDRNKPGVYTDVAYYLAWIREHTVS

[7] = biological target: T6, Probable nicotinate-nucleotide adenylyltransferase (Staphylococcus aureus (strain N315), UniProt P65502); type: functional, Staphylococcus aureus subsp. aureus N315; details: read-out: IC50_Mean;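 as to IC50 Mean: confirmatory dose-response retesting of NadD inhibitor hits first found in an ultra-high-throughput screen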
[8] = biological target: T6, Probable nicotinate-nucleotide adenylyltransferase; type: functional, Staphylococcus aureus subsp. aureus N315
[9] = biological target: T7, High affinity choline transporter 1 (Homo sapiens, UniProt Q9GZV3); assay: CHT inhibitors, dose response, cell-based, 5-point CRC, membrane potential dye (AID 504840); type: functional
T7 sequence (Q9GZV3 whole entry): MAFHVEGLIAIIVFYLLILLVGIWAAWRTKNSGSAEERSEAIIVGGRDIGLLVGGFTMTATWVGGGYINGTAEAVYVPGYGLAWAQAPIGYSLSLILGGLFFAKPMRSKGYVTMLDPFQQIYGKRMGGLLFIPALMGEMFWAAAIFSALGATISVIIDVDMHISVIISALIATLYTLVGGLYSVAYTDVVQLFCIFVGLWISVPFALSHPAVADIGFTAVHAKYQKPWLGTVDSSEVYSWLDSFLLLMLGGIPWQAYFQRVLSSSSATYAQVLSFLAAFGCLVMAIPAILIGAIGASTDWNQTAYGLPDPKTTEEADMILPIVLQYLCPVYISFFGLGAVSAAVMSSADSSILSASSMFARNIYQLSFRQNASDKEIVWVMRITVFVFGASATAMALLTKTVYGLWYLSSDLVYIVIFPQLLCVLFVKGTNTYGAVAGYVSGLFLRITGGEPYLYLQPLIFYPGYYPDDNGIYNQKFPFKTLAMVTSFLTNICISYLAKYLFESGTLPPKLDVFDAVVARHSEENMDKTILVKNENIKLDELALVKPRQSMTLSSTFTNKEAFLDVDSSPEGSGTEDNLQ

[10] = biological target: T8, Adenosylmethionine-8-amino-7-oxononanoate aminotransferase (Mycobacterium tuberculosis, UniProt P9WQ81); assay: Mycobacterium tuberculosis BioA enzyme inhibitor Measured in Biochemical System Using Plate Reader - 2163-02_Inhibitor_Dose_CherryPick_Activity.; type: functional, Mycobacterium tuberculosis UT205
T8 sequence (P9WQ81 whole entry): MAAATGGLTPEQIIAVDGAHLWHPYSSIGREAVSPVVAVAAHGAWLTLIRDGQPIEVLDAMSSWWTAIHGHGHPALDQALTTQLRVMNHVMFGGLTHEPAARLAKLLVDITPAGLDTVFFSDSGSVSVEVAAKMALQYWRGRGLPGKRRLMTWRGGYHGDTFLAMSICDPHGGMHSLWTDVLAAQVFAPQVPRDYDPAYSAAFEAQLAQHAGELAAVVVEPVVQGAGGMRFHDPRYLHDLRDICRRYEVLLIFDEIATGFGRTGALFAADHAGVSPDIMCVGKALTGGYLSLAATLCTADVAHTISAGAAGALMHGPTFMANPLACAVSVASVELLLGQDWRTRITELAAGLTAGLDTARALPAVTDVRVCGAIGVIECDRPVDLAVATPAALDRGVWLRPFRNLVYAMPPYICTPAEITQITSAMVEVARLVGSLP

[11] = cytotoxicity in HEK-293T cells, dose response, cytotoxicity control for TCR NF-kB inhibitor project, luminescence, T-cell screen hits (AID 489026); type: functional, cell-based;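 also: cells exposed to compound about 14 hours before the viability readout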
[12] = biological target: T9, Microphthalmia-associated transcription factor (Homo sapiens, UniProt O75030); assay: TRPM1 promoter luciferase signal decrease, dose response, MITF inhibitor project, cell-based, SK-MEL-5, cherry-picked, set 3 (AID 493073); type: functional
T9 sequence (O75030 whole entry): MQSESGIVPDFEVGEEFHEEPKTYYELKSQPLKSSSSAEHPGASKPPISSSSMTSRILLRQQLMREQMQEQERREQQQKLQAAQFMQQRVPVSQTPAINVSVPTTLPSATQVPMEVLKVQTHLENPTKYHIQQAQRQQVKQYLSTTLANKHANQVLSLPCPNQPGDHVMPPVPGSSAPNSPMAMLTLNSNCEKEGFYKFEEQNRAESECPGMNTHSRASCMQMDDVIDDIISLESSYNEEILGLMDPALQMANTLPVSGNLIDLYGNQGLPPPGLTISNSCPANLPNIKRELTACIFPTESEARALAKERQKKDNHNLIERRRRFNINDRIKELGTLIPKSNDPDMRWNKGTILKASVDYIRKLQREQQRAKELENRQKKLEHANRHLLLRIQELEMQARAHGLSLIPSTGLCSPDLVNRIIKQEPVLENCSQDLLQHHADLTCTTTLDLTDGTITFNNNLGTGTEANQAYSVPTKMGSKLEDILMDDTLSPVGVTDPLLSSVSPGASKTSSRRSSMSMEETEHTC

[13] = miR-122 activators in hepatoma reporter cells, dose response, cell-based, Huh7 psiCHECK-miR122, Renilla luciferase, cherry-picked (AID 651956); type: functional;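 also: huh7 hepatoma cells stably carrying a psiCHECK-2 miR-122 sensor plasmid; renilla luciferase signal reporting endogenous miR-122 activity after 48 h compound exposure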

T6 sequence (P65502 whole entry): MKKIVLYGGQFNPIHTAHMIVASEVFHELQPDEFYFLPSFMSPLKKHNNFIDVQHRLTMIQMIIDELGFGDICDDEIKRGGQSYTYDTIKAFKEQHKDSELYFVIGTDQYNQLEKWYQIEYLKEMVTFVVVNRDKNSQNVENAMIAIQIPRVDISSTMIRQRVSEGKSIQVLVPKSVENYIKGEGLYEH
Chain of Genome polyprotein (P29990 2492-3391 limits assumed): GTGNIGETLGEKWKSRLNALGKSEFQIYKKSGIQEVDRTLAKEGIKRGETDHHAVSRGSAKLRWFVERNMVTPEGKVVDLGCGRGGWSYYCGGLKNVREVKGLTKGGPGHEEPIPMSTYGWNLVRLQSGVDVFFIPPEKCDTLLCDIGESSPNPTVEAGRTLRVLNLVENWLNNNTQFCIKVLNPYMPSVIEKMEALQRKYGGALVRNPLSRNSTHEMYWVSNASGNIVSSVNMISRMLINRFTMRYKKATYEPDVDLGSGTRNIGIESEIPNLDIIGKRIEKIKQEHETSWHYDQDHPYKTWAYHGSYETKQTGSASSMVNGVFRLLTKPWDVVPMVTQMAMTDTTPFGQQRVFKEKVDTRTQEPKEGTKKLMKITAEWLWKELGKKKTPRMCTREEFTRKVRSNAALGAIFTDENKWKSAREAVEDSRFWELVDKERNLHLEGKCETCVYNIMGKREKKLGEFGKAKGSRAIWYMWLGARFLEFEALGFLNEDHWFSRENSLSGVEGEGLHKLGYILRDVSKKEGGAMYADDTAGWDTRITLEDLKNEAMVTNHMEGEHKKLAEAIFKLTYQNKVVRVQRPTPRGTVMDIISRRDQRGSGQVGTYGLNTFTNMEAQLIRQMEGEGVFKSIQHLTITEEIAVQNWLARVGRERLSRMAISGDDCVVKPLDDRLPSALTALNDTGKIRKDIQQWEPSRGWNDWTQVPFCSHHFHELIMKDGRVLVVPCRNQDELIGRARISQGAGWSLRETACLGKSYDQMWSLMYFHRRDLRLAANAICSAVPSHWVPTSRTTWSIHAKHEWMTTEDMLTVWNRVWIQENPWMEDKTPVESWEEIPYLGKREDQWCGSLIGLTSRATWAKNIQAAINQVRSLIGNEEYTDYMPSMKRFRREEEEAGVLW

SMILES: CC(C)OC(=O)/C(C#N)=C/c1ccc(-c2ccc(SC(F)F)cc2)o1
- EC50 [1]: 11.9 µM (active)
- CC50 [2]: > 40 µM (active)
- EC50 [3]: > 99 µM (inactive)

SMILES: COC(=O)CCC(=O)OC1(C)C(=O)C2=CN(CC3CC3)C(c3ccc(OC)cc3)=CC2=C(Br)C1=O (stereo not given)
- IC50 [4]: 31.7 µM (active)
- IC50 (Genome polyprotein): 30.5 µM (active)

SMILES: COc1ccc(N/C=C\C(=O)c2ccc(C)cc2)cc1OC
- EC50 [5]: > 300 µM (not active)
- EC50 [1]: 25 µM (inactive)
- EC50 [6]: > 300 µM (not active)
- EC50 [3]: > 99 µM (inactive)

SMILES: O=C(NCCN1C(=O)C2C3C=CC(C3)C2C1=O)Nc1ccccc1 (stereo not given)
- IC50 (Coagulation factor XII): > 50 µM (inactive)

SMILES: CN(C(=O)Oc1cccc2cccnc12)c1ccccc1
- IC50 (Coagulation factor XII): > 50 µM (inactive)

SMILES: C/C=C\C=C/C(=O)Nc1cccc(C2=NOC3(C2)C[C@@H](C(N)=O)N(C(=O)COc2ccc(Cl)cc2)C3)c1 (stereo not given in full)
- IC50 [7]: 17.3 µM (active)
- IC50 [8]: 10.7 µM (active)

SMILES: CCN(CC)CCNC(=O)c1cn(CC)c2ccc(S(=O)(=O)N3CCc4ccccc4C3)cc2c1=O
- IC50 [9]: 11.2 µM (active)
- AC50 [10]: 2.88 µM (active)

SMILES: COc1cc(-c2noc(C)c2C#Cc2ccsc2)cc(OC)c1OC
- IC50 [11]: > 80 µM (inactive)

SMILES: CCOC(=O)Cn1/c(=N/C(=O)c2ccc([N+](=O)[O-])s2)sc2ccccc21
- AC50 [12]: 3.5 µM (active)
- EC50 [1]: > 99 µM (inactive)
- EC50 [3]: > 99 µM (inactive)

SMILES: COc1cc(C(=O)N2Cc3cc4ccccc4nc3C2C)cc(OC)c1OC (stereo not given)
- AC50 [10]: 2.01 µM (active)

SMILES: CC(=O)N(C[C@H]1N[C@H](CO)[C@@H]1c1ccc(-c2ccccc2)cc1)C(C)C
- AC50 [13]: 23.3 µM (active)

SMILES: COc1ccc(OCCNc2c([N+](=O)[O-])c(=O)oc3ccccc23)cc1
- IC50 [4]: 4.61 µM (active)

SMILES: Cc1ccc(C(=O)Nc2cccc(C(=O)N/N=C/c3ccc(F)cc3)c2)cc1
- EC50 [1]: > 99 µM (inactive)
- EC50 [3]: 41.1 µM (inactive)

SMILES: COc1cc2c(cc1O)CC[C@@H]1[C@@H]2CC[C@]2(C)[C@@H](O)CC[C@@H]12 [2-METHOXYESTRADIOL]
- IC50 [11]: > 80 µM (inactive)
